Measurements as given in patent US20220096650A1 (Glaxosmithkline Intellectual Property Development Limited, priority 2019, published 2022).

Experiments:
Dendritic cells = assay: Co-culture of immature dendritic cells with BCMA ADC treated NCI-H929 cells, maturation markers by flow cytometry; format: cell-based, human
Excerpt: The process of immunogenic cell death can induce the production of danger molecules that lead to the activation of dendritic cells (see FIG. 1A-ICD is a special type of apoptosis often associated with the cellular release of ATP and HMGB1, and exposure of CRT at the cellular membrane. ICD induces an immune response through engagement of the antigen presentation process by dendritic cells (DCs)). […] Anti-BCMA-MMAF induced ATP release, HMGB1 release and CRT exposure only in NCI-H929, a BCMA positive MM cell line). To investigate the effect of NCI-H929 cell killing by BCMA ADC on the activation of dendritic cells, co-culture experiments were carried out with BCMA ADC treated NCI-H929 cells and immature dendritic cells (iDCs) differentiated from human monocytes in vitro with GM-CSF/IL-4 treatment. A number of dendritic cell maturation markers as well as IL-10 and IL-12p70, two major cytokines secreted by dendritic cells upon activation, were monitored in this process to assess the effect of BCMA ADC induced cell death on dendritic cell activation. Fresh, whole Human blood was obtained from three healthy donors from the Upper Providence Blood Donation Unit with syringes coated in liquid sodium heparin ([…] 10 IU/mL final concentration). Monocytes were isolated from fresh, whole human blood using the RosetteSep Monocyte Enrichment kit (Cat. #15068) and were assessed for expression of cell surface CD14 (BD Bioscience Cat. #562698) using flow cytometry. […] All cells were counted at the initiation of the co-culture and diluted with X-Vivo-15 media to a concentration of 7.5×10^5 cells/mL. […] Data for the secreted IL-10 and IL-12p70 from supernatants in the co-culture assays w analyzed in MSD Discovery Workbench v4.0.12. […] Marker expression was measured in (a) untreated (no BCMA ADC) Dendritic cells alone and (b-f) Dendritic cells that were co-cultured with (b) untreated (no BCMA ADC), (c) IgG Control (10 μg/mL), (d) 0.1, (e) 1 and (f) 10 μg/mL BCMA ADC treated (48 hours) NCI-H929 cells. […]

[1] = system: CD4 and CD8 cells in PBMC; assay: IFNγ and IL-4 production by T cells upon anti-CD3/anti-CD28 stimulation in PBMC; format: cell-based, human; details: 48 and 72 hours
Experimental: This study was repeated two times (n=2) with blood from two different donors. 100 μL PBMCs (1×10^6 cells/mL) in RPMI-1640 with 10% FBS were added into anti-CD3 antibody coated wells with or without soluble 0.5 μg/mL anti-CD28 antibody. […] Three technical replicates were included for each assay condition. At the end of the study, cells were transferred, washed, stained and analyzed by flow cytometry as described in section 3.1. For intracellular staining, cells were fixed by cytofix buffer (BD Biosciences, Catalog #554655) at room temperature for 20 minutes and permeablized by perm/wash buffer (BD Biosciences, catalog #554723) at room temperature for 30 minutes before staining with antibodies or isotype controls.
The raw percentage and MFI data for each marker at each concentration of BCMA ADC was compared to the corresponding IgG control in the statistical analysis. To account for the variability of the different blood donors, a linear mixed effect model was used to analyze the data. […]
For data reporting, the average percentage or average MFI value among three technical replicates was generated at each BCMA ADC concentration and the % difference values were calculated as: % difference=(Avg 916−Avg IgG)*100/Avg IgG, where Avg 916 and Avg IgG represent the average values of the BCMA ADC treatment group and the IgG control group, respectively. […]

[2] = three healthy donors, 24 hour co-culture, 0.1, 1, 10 μg/mL BCMA ADC

GSK2857916
effect of killing of NCI-H929 cells on dendritic cells (Dendritic cells; 24 hour co-culture 1:1 with NCI-H929 cells treated 48 hours): stimulatory effect on dendritic cells | CD40 cell surface expression on CD11c+ Dendritic cells (Dendritic cells; [2]): increased | CD83 cell surface expression on HLA-DR+ Dendritic cells (Dendritic cells; [2]): increased | IFNγ production [1]: no significant effect | IL-4 production [1]: no significant effect
